Literature values, collected in US20220370398A1, “METHOD TO DESTABALIZE CYSTEINE EXPOSED INFECTIOUS INFORMATION VECTORS” (priority 2021, published 2022).

Experiments:
bacterial infection = settings: in vitro, as a vapor
[1] = in 40% aqueous ethanol solution

C=CCS[S+]([O-])CC=C (centres unmarked) [2PSP, 2-Propene-1-sulfinothioic acid S-2-propenyl ester]
vapor antimicrobial effect (bacterial infection): inhibits bacterial infection | solubility [1]: ~20%
